In patent US9056874B2, “Complement pathway modulators and uses thereof” (NOVARTIS AG, priority 2012, dated 2015):

Target: factor B (Homo sapiens, UniProt P00751)
Assay: factor B inhibition assay of Biological Example 1
Type: biochemical
Set-up: CVF-Bb complex prepared from purified cobra venom factor (1 μM), recombinant human complement factor B; made in house; host or cells: drosophila cells (factor B); E. coli (factor D used to form the complex)
Conditions: IC50 (nM), assay of Biological Example 1 (Table 1)

Sequence of factor B (P00751 260-764 limits assumed): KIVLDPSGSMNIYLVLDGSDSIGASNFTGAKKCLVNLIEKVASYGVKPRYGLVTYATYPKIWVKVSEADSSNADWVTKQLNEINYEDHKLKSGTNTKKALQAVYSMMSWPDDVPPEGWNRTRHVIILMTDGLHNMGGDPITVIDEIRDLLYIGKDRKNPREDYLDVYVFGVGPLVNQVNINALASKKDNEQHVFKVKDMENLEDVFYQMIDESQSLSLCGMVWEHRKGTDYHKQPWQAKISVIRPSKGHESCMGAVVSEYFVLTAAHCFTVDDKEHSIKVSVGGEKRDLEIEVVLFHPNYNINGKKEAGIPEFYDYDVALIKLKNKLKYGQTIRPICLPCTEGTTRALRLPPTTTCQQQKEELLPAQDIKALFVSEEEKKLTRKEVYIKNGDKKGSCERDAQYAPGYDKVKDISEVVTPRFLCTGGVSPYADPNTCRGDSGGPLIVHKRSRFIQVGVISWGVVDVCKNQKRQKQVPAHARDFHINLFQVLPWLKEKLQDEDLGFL
Sequence of factor B (Q91132 23-649 partner limits assumed): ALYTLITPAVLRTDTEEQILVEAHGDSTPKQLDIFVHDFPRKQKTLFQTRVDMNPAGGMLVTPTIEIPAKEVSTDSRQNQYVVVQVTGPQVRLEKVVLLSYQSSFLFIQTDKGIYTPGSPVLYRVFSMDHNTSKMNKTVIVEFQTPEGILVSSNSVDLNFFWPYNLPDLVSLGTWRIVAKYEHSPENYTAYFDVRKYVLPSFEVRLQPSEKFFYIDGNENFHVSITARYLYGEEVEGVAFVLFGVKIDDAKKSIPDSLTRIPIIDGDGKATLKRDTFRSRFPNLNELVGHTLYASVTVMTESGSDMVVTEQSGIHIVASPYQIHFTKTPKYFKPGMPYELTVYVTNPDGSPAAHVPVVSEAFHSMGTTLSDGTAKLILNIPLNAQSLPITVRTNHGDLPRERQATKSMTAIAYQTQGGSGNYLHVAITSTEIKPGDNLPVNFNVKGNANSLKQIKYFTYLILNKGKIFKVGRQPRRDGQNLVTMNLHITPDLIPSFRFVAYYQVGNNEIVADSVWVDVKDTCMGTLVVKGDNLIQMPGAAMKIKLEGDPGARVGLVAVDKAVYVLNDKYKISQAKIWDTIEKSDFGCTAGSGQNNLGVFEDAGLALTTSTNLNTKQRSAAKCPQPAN
Sequence of factor B (Q91132 733-984 partner limits assumed): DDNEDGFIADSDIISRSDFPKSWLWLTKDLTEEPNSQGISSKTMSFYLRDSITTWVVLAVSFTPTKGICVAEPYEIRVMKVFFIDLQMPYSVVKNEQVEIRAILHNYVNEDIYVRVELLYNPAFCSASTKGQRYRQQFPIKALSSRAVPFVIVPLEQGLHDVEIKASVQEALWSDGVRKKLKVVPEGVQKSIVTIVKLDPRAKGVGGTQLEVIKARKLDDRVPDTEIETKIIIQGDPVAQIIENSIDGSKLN
Sequence of factor B (Q91132 1264-1642 partner limits assumed): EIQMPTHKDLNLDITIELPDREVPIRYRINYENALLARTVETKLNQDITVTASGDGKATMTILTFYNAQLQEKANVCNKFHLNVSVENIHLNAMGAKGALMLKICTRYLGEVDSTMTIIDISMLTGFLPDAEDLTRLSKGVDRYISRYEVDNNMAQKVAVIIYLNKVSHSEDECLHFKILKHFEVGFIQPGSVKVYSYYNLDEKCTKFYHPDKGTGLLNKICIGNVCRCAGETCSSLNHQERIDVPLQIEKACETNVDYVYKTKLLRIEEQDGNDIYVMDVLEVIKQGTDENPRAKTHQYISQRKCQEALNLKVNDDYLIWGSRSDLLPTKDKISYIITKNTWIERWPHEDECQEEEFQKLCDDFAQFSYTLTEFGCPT

Which IC50 does the source give for Cc1cc(OC(F)F)c(C(NCCN)c2nc3cc(C#N)ccc3[nH]2)c2cc[nH]c12 (racemic) [3-B a) 2nd compound, (±)-2-(((2-aminoethyl)amino)(5-(difluoromethoxy)-7-methyl-1H-indol-4-yl)methyl)-1H-benzo[d]imidazole-5-carbonitrile] here?
The IC50 was 2700 nM.

How did the IC50 turn out when Cc1cc(OC(F)F)c(C(C)(O)c2nc3cc(C#N)ccc3[nH]2)c2cc[nH]c12 (racemic) [6-B b) (+), (+)-2-(1-(5-(difluoromethoxy)-7-methyl-1H-indol-4-yl)-1-hydroxyethyl)-1H-benzo[d]imidazole-5-carbonitrile] was run?
Its IC50 is 140 nM.

Cc1cc(OC(F)F)c(C(C)(O)c2nc3cc(C#N)ccc3[nH]2)c2cc[nH]c12 (racemic) [6-B b) (−), (−)-2-(1-(5-(difluoromethoxy)-7-methyl-1H-indol-4-yl)-1-hydroxyethyl)-1H-benzo[d]imidazole-5-carbonitrile] was tested. Which IC50 did it give?
Its IC50 is 110 nM.

For COc1cc(C)c2[nH]ccc2c1C(C)(O)c1nc2cc(C#N)ccc2[nH]1 (racemic) [26-C b) (+), (+)-2-(1-hydroxy-1-(5-methoxy-7-methyl-1H-indol-4-yl)ethyl)-1H-benzo[d]imidazole-5-carbonitrile], which IC50 is on record?
The IC50 was 50 nM.

With COc1cc(C)c2[nH]ccc2c1C(C)(O)c1nc2cc(C#N)ccc2[nH]1 (racemic) [26-C b) (−), (−)-2-(1-hydroxy-1-(5-methoxy-7-methyl-1H-indol-4-yl)ethyl)-1H-benzo[d]imidazole-5-carbonitrile] as the molecule, how does the IC50 read?
The IC50 was 80 nM.

With COc1cc(C)c2[nH]ccc2c1C(OC)c1nc2cc(C#N)ccc2[nH]1 (racemic) [30-B b) (+), (+)-2-(methoxy(5-methoxy-7-methyl-1H-indol-4-yl)methyl)-1H-benzo[d]imidazole-5-carbonitrile] as the molecule, how does the IC50 read?
Its IC50 is 220 nM.

For COc1cc(C)c2[nH]ccc2c1C(OC)c1nc2cc(C#N)ccc2[nH]1 (racemic) [30-B b) (−), (−)-2-(methoxy(5-methoxy-7-methyl-1H-indol-4-yl)methyl)-1H-benzo[d]imidazole-5-carbonitrile], which IC50 is on record?
The IC50 was 160 nM.

COC(=O)COC(c1nc2cc(C#N)ccc2[nH]1)(c1c(OC)cc(C)c2[nH]ccc12)C(F)(F)F (racemic) [35-B a), (±)-Methyl 2-(1-(5-cyano-1H-benzo[d]imidazol-2-yl)-2,2,2-trifluoro-1-(5-methoxy-7-methyl-1H-indol-4-yl)ethoxy)acetate] was tested. Which IC50 did it give?
Its IC50 is 70 nM.

COc1cc(C)c2[nH]ccc2c1C(N)(c1nc2cc(C#N)ccc2[nH]1)C(F)(F)F (racemic) [36-E b) (+), (+)-2-(1-amino-2,2,2-trifluoro-1-(5-methoxy-7-methyl-1H-indol-4-yl)ethyl)-1H-benzo[d]imidazole-5-carbonitrile] was tested. Which IC50 did it give?
Its IC50 is 50 nM.

Which IC50 does the source give for CCCc1cc(C)c2[nH]ccc2c1C(C)(O)c1nc2cc(C#N)ccc2[nH]1 (racemic) [79-B a) 2nd compound, (±)-2-(1-hydroxy-1-(7-methyl-5-propyl-1H-indol-4-yl)ethyl)-1H-benzo[d]imidazole-5-carbonitrile] here?
The IC50 was 150 nM.

How did the IC50 turn out when Cc1cc(C)c2[nH]ccc2c1C(C)(N)c1nc2cc(C#N)ccc2[nH]1 (racemic) [101-E b) (+), (+)-2-(1-amino-1-(5,7-dimethyl-1H-indol-4-yl)ethyl)benzo[d]imidazole-5-carbonitrile] was run?
Its IC50 is 80 nM.

Which IC50 does the source give for Cc1cc(C)c2[nH]ccc2c1C(C)(N)c1nc2cc(C#N)ccc2[nH]1 (racemic) [101-E b) (−), (−)-2-(1-amino-1-(5,7-dimethyl-1H-indol-4-yl)ethyl)benzo[d]imidazole-5-carbonitrile] here?
The IC50 was 50 nM.

How did the IC50 turn out when COc1cc(C)c2[nH]ccc2c1C(C)(O)c1nc2cc(C#N)ccc2o1 (racemic) [126-C a), (±)-2-(1-hydroxy-1-(5-methoxy-7-methyl-1H-indol-4-yl)ethyl)benzo[d]oxazole-5-carbonitrile] was run?
The IC50 was 8 nM.

Which IC50 does the source give for COc1cc(C)c2[nH]ccc2c1C(C)(OC)c1nc2cc(C#N)ccc2o1 (racemic) [127-B a), (±)-2-(1-methoxy-1-(5-methoxy-7-methyl-1H-indol-4-yl)ethyl)benzo[d]oxazole-5-carbonitrile] here?
Its IC50 is 330 nM.

Which IC50 does the source give for CNC(c1nc2cc(C#N)ccc2[nH]1)c1c(OC(F)F)cc(C)c2[nH]ccc12 (racemic) [Example 4, (±)-2-((5-(Difluoromethoxy)-7-methyl-1H-indol-4-yl)(methylamino)methyl)-1H-benzo[d]imidazole-5-carbonitrile] here?
The IC50 was 570 nM.

Which IC50 does the source give for Cc1cc(S(C)(=O)=O)c(C(O)c2nc3cc(C#N)ccc3[nH]2)c2cc[nH]c12 (racemic) [Example 10-C, (±)-2-(Hydroxy(7-methyl-5-(methylsulfonyl)-1H-indol-4-yl)methyl)-1H-benzo[d]imidazole-5-carbonitrile] here?
Its IC50 is 1360 nM.

How did the IC50 turn out when COCC(C)Oc1cc(C)c2[nH]ccc2c1Cc1nc2cc(C#N)ccc2[nH]1 (racemic) [Example 23, (±)-2-((5-((1-Methoxypropan-2-yl)oxy)-7-methyl-1H-indol-4-yl)methyl)-1H-benzo[d]imidazole-5-carbonitrile] was run?
The IC50 was 2650 nM.

Which IC50 does the source give for Cc1cc(OCC(N)=O)c(C(C)(O)c2nc3cc(C#N)ccc3[nH]2)c2cc[nH]c12 (racemic) [Example 31-C, (±)-2-((4-(1-(5-Cyano-1H-benzo[d]imidazol-2-yl)-1-hydroxyethyl)-7-methyl-1H-indol-5-yl)oxy)acetamide] here?
The IC50 was 430 nM.

Cc1cc(OCC(=O)O)c(C(C)(O)c2nc3cc(C#N)ccc3[nH]2)c2cc[nH]c12 (racemic) [Example 32-B, (±)-2-((4-(1-(5-Cyano-1H-benzo[d]imidazol-2-yl)-1-hydroxyethyl)-7-methyl-1H-indol-5-yl)oxy)acetic acid] was tested. Which IC50 did it give?
The IC50 was 1410 nM.

With Cc1cc(OC(C)C)c(C(N)(c2nc3cc(C#N)ccc3[nH]2)C(F)(F)F)c2cc[nH]c12 (racemic) [Example 37, (±)-2-(1-Amino-2,2,2-trifluoro-1-(5-isopropoxy-7-methyl-1H-indol-4-yl)ethyl)-1H-benzo[d]imidazole-5-carbonitrile] as the molecule, how does the IC50 read?
Its IC50 is 30 nM.

Which IC50 does the source give for COc1cc(C)c2[nH]ccc2c1C(c1nc2cc(C#N)ccc2[nH]1)(N(C)C)C(F)(F)F (racemic) [Example 38-C, (±)-2-(1-(Dimethylamino)-2,2,2-trifluoro-1-(5-methoxy-7-methyl-1H-indol-4-yl)ethyl)-1H-benzo[d]imidazole-5-carbonitrile] here?
The IC50 was 490 nM.

Which IC50 does the source give for Cc1cc(OC(C)C)c(C(N)c2nc3cc(C#N)ccc3[nH]2)c2cc[nH]c12 (racemic) [Example 40, (±)-2-(Amino(5-isopropoxy-7-methyl-1H-indol-4-yl)methyl)-1H-benzo[d]imidazole-5-carbonitrile] here?
Its IC50 is 50 nM.

COc1cc(C)c2[nH]ccc2c1C(c1nc2cc(C#N)ccc2[nH]1)N(C)C (racemic) [Example 43-C, (±)-2-((Dimethylamino)(5-methoxy-7-methyl-1H-indol-4-yl)methyl)-1H-benzo[d]imidazole-5-carbonitrile] was tested. Which IC50 did it give?
The IC50 was 1180 nM.

Which IC50 does the source give for CCOc1cc(C)c2[nH]ccc2c1C(CN)c1nc2cc(C#N)ccc2[nH]1 (racemic) [Example 44-C, (±)-2-(2-amino-1-(5-ethoxy-7-methyl-1H-indol-4-yl)ethyl)-1H-benzo[d]imidazole-5-carbonitrile] here?
The IC50 was 870 nM.

With CCOc1cc(C)c2[nH]ccc2c1C(CNC)c1nc2cc(C#N)ccc2[nH]1 (racemic) [Example 45, (±)-2-(1-(5-ethoxy-7-methyl-1H-indol-4-yl)-2-(methylamino)ethyl)-1H-benzo[d]imidazole-5-carbonitrile] as the molecule, how does the IC50 read?
The IC50 was 1040 nM.

COC(c1nc2cc(C#N)ccc2[nH]1)c1c(C)cc(C)c2[nH]ccc12 (racemic) [Example 68-B, (±)-2-((5,7-Dimethyl-1H-indol-4-yl)(methoxy)methyl)-1H-benzo[d]imidazole-5-carbonitrile] was tested. Which IC50 did it give?
Its IC50 is 200 nM.

For Cc1cc(C)c2[nH]ccc2c1C(OCC(=O)O)c1nc2cc(C#N)ccc2[nH]1 (racemic) [Example 69, (±)-2-((5-cyano-1H-benzo[d]imidazol-2-yl)(5,7-dimethyl-1H-indol-4-yl)methoxy)acetic acid], which IC50 is on record?
Its IC50 is 3630 nM.

How did the IC50 turn out when CCOC(c1nc2cc(C#N)ccc2[nH]1)c1c(C)cc(C)c2[nH]ccc12 (racemic) [Example 73, (±)-2-((5,7-Dimethyl-1H-indol-4-yl)(ethoxy)methyl)-1H-benzo[d]imidazole-5-carbonitrile] was run?
The IC50 was 1270 nM.

For COCCOC(c1nc2cc(C#N)ccc2[nH]1)c1c(C)cc(C)c2[nH]ccc12 (racemic) [Example 74, (±)-2-((5,7-Dimethyl-1H-indol-4-yl)(2-methoxyethoxy)methyl)benzo[d]imidazole-5-carbonitrile], which IC50 is on record?
The IC50 was 1870 nM.

Which IC50 does the source give for Cc1cc(C)c2[nH]ccc2c1C(C)c1nc2cc(C#N)ccc2[nH]1 (racemic) [Example 75-D, (±)-2-(1-(5,7-Dimethyl-1H-indol-4-yl)ethyl)-1H-benzo[d]imidazole-5-carbonitrile] here?
The IC50 was 470 nM.

With Cc1cc2c(c3cc[nH]c13)C(c1nc3cc(C#N)ccc3[nH]1)(C(F)(F)F)OC2=O (racemic) [Example 81-D, (±)-2-(5-Methyl-3-oxo-1-(trifluoromethyl)-3,6-dihydro-1H-furo[3,4-e]indol-1-yl)-1H-benzo[d]imidazole-5-carbonitrile] as the molecule, how does the IC50 read?
Its IC50 is 2930 nM.

Cc1cc(CO)c(C(O)(c2nc3cc(C#N)ccc3[nH]2)C(F)(F)F)c2cc[nH]c12 (racemic) [Example 81-E, (±)-2-(2,2,2-Trifluoro-1-hydroxy-1-(5-(hydroxymethyl)-7-methyl-1H-indol-4-yl)ethyl)-1H-benzo[d]imidazole-5-carbonitrile] was tested. Which IC50 did it give?
Its IC50 is 1640 nM.

CNC(=O)c1cc(C)c2[nH]ccc2c1C(O)(c1nc2cc(C#N)ccc2[nH]1)C(F)(F)F (racemic) [Example 82, (±)-4-(1-(5-cyano-1H-benzo[d]imidazol-2-yl)-2,2,2-trifluoro-1-hydroxyethyl)-N,7-dimethyl-1H-indole-5-carboxamide] was tested. Which IC50 did it give?
Its IC50 is 71900 nM.

Which IC50 does the source give for Cc1cc(C(F)(F)F)c(C(C)(O)c2nc3cc(C#N)ccc3[nH]2)c2cc[nH]c12 (racemic) [Example 83-B, (±)-2-(1-hydroxy-1-(7-methyl-5-(trifluoromethyl)-1H-indol-4-yl)ethyl)-1H-benzo[d]imidazole-5-carbonitrile] here?
The IC50 was 1440 nM.
